Experiments:
PDE9A = PDE9A (Homo sapiens, UniProt O76083); assay: PDE enzymatic activity assay (SPA), PDE9A; format: biochemical; design: made in house; host or cells: SF9 insect cells (crude lysate used as enzyme source); settings: cGMP substrate, for illustrative purposes; for inhibition at 10 µM: 10 micromolar; for IC50: given as ranges
Protocol: (§1) The PDE enzymatic activity assays were run as SPA, in general according to the protocol of the manufacturer (Amersham Biosciences, product number: TRKQ 7100). As enzyme source, lysate (PBS with 1% Triton X-100 supplemented with protease inhibitors, cell debris removed by centrifugation at 13.000 rpm for 30 min) of SF 9 cell expressing the human PDE of interest was used. The total protein amount included in the assay varied upon infection and production efficacy of the SF9 cells and lay in the range of […].
(§2) In general, the assay conditions were as follows: • total assay volume: 40 μl • protein amount: 0.1-50 ng • substrate concentration (cGMP or cAMP): 20 nM; ˜1 mCi/l • incubation time: 60 min at room temperature • final DMSO concentration: 1%
(§3) The assays were run in 384-well format. The test reagents as well as the enzyme and the substrate were diluted in assay buffer. The assay buffer contained 50 mM Tris, 8.3 mM MgCl2, 1.7 mM EGTA, 0.1% BSA, 0.05% Tween 20; the pH of assay buffer was adjusted to 7.5. In case activity of PDE1C was analysed, 50 nM Calmodulin and 3 mM CaCl2 were included in the assay buffer. In case PDE9 activity was analyzed, the reaction was stopped by applying a PDE9 specific inhibitor (e.g. compounds according to WO2004/099210). PDE1C was analysed with cAMP as substrate, and PDE9 was analyzed with cGMP as substrate.
Calculation of % Inhibition:
The activity of the positive control (minus the negative control=background) is set to 100% and activity in the presence of test compound is expressed relative to these 100%.
Within this setting, an inhibition above 100% might be possible due to the nature of the variation of the positive control within the assay, however, in this case the reported % inhibition had been adjusted to 100%.
(§4) IC50 can be calculated in a conventional way, eventually with the help of GraphPadPrism or other suited software setting the positive control as 100 and the negative control as 0. For calculation of IC50 usually 8 dilutions of the test compound ([…]) are to be selected and tested following the aforementioned protocol.

PDE1C = target: T1, PDE1C (Homo sapiens, UniProt Q14123); assay: PDE enzymatic activity assay (SPA), PDE1C, cAMP as substrate; format: biochemical; settings: ratio IC50 PDE1C / IC50 PDE9A; for illustrative purposes
T1 construct: made in house; host or cells: SF9 insect cells (crude lysate used as enzyme source)
Protocol: as §1, §2, §3, §4

PDE9A, sequence (O76083 whole entry): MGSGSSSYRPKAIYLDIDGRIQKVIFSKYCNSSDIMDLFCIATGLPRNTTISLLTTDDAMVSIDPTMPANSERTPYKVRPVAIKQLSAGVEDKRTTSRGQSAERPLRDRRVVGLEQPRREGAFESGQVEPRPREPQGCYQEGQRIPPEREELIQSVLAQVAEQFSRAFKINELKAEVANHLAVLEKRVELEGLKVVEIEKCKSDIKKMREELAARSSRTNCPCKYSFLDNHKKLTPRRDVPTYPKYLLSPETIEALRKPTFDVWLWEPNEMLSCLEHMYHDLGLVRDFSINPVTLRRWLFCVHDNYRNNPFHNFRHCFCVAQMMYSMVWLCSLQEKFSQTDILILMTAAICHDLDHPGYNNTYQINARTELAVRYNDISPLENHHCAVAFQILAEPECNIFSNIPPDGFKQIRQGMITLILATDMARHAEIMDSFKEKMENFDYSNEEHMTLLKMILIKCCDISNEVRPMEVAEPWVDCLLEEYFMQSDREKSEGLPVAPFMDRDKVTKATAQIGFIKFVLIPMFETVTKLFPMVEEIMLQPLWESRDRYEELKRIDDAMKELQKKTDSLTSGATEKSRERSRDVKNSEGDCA

SMILES | inhibition at 10 µM (PDE9A) [%] | IC50 (PDE9A) [nM] | Selectivity = IC50 PDE 1C/IC50 PDE9A (both nanomolar) (PDE1C)
Cc1ccc(F)cc1-n1ncc2c(=O)[nH]c(Cc3ccccc3OC(F)(F)F)nc21 [Example 14, 1-(5-Fluoro-2-methyl-phenyl)-6-(2-trifluoromethoxy-benzyl)-1,5-dihydro-pyrazolo[3,4-d]pyrimidin-4-one] | 95 | 10 to 500 | 14
O=c1[nH]c(Cc2ccccc2OC(F)(F)F)nc2c1cnn2-c1c(Cl)cccc1Cl [Example 25, 1-(2,6-Dichloro-phenyl)-6-(2-trifluoromethoxy-benzyl)-1,5-dihydro-pyrazolo[3,4-d]pyrimidin-4-one] | 58 | > 500 | 24
Cc1ccncc1-n1ncc2c(=O)[nH]c(Cc3ccccc3OC(F)(F)F)nc21 [Example 1, 1-(4-Methyl-pyridin-3-yl)-6-(2-tri-fluoromethoxy-benzyl)-1,5-dihydro-pyrazolo[3,4-d]pyrimidin-4-one] | 99 | 10 to 500 | 39
Cc1ccccc1-n1ncc2c(=O)[nH]c(Cc3ccccc3OC(F)(F)F)nc21 [Example 2, 1-o-Tolyl-6-(2-trifluoromethoxy-benzyl)-1,5-dihydro-pyrazolo[3,4-d] pyrimidin-4-one] | 98 | 10 to 500 | 14
COc1ccc(Cl)c(-n2ncc3c(=O)[nH]c(Cc4ccccc4OC(F)(F)F)nc32)c1 [Example 22, 1-(2-Chloro-5-methoxy-phenyl)-6-(2-trifluoromethoxy-benzyl)-1,5-dihydro-pyrazolo[3,4-d]pyrimidin-4-one] | 98 | 10 to 500 | 14
Cc1ccc(Br)c(-n2ncc3c(=O)[nH]c(Cc4ccccc4OC(F)(F)F)nc32)c1 [Example 10, 1-(2-Bromo-5-methyl-phenyl)-6-(2-trifluoromethoxy-benzyl)-1,5-dihydro-pyrazolo[3,4-d]pyrimidin-4-one] | 88 | > 500 | 7
O=c1[nH]c(Cc2ccccc2OC(F)(F)F)nc2c1cnn2-c1ccc(F)cc1Br [Example 9, 1-(2-Bromo-4-fluoro-phenyl)-6-(2-trifluoromethoxy-benzyl)-1,5-dihydro-pyrazolo[3,4-d]pyrimidin-4-one] | 90 | 10 to 500 | 6
O=c1[nH]c(Cc2ccccc2OC(F)(F)F)nc2c1cnn2-c1cc(Cl)ccc1Cl [Example 16, 1-(2,5-Dichloro-phenyl)-6-(2-trifluoromethoxy-benzyl)-1,5-dihydro-pyrazolo[3,4-d]pyrimidin-4-one] | 93 | 10 to 500 | 71
O=c1[nH]c(Cc2ccccc2OC(F)(F)F)nc2c1cnn2-c1ccc(F)cc1F [Example 12, 1-(2,4-Difluoro-phenyl)-6-(2-trifluoromethoxy-benzyl)-1,5-dihydro-pyrazolo[3,4-d]pyrimidin-4-one] | 102 | 10 to 500 | 8
Cc1cc(F)ccc1-n1ncc2c(=O)[nH]c(Cc3ccccc3OC(F)(F)F)nc21 [Example 17, 1-(4-Fluoro-2-methyl-phenyl)-6-(2-trifluoromethoxy-benzyl)-1,5-dihydro-pyrazolo[3,4-d]pyrimidin-4-one] | 98 | 10 to 500 | 9
CCOc1ccc(Cl)c(-n2ncc3c(=O)[nH]c(Cc4ccccc4OC(F)(F)F)nc32)c1 [Example 20, 1-(2-Chloro-5-ethoxy-phenyl)-6-(2-trifluoromethoxy-benzyl)-1,5-dihydro-pyrazolo[3,4-d]pyrimidin-4-one] | 87 | 10 to 500 | 4
Cc1ccc(Cl)cc1-n1ncc2c(=O)[nH]c(Cc3ccccc3OC(F)(F)F)nc21 [Example 15, 1-(5-Chloro-2-methyl-phenyl)-6-(2-trifluoromethoxy-benzyl)-1,5-dihydro-pyrazolo[3,4-d]pyrimidin-4-one] | 94 | 10 to 500 | 271
COc1ccc(Cl)cc1-n1ncc2c(=O)[nH]c(Cc3ccccc3OC(F)(F)F)nc21 [Example 4, 1-(5-Chloro-2-methoxy-phenyl)-6-(2-trifluoromethoxy-benzyl)-1,5-dihydro-pyrazolo[3,4-d]pyrimidin-4-one] | 102 | 10 to 500 | 88
CCOc1cc(Cl)c(-n2ncc3c(=O)[nH]c(Cc4ccccc4OC(F)(F)F)nc32)cc1C [Example 27, 1-(2-Chloro-4-ethoxy-5-methyl-phenyl)-6-(2-trifluoromethoxy-benzyl)-1,5-dihydro-pyrazolo [3,4-d]pyrimidin-4-one] | 67 | > 500 | 14
Cc1cccc(-n2ncc3c(=O)[nH]c(Cc4ccccc4OC(F)(F)F)nc32)c1C [Example 19, 1-(2,3-Dimethyl-phenyl)-6-(2-trifluoromethoxy-benzyl)-1,5-dihydro-pyrazolo[3,4-d] pyrimidin-4-one] | 74 | 10 to 500 | 5
O=c1[nH]c(Cc2ccccc2OC(F)(F)F)nc2c1cnn2-c1ccc(F)cc1Cl [Example 13, 1-(2-Chloro-4-fluoro-phenyl)-6-(2-trifluoromethoxy-benzyl)-1,5-dihydro-pyrazolo[3,4-d]pyrimidin-4-one] | 96 | 10 to 500 | 10

Now from value to molecule:

inhibition at 10 µM (PDE9A) [%] | IC50 (PDE9A) [nM] | Selectivity = IC50 PDE 1C/IC50 PDE9A (both nanomolar) (PDE1C) | SMILES
99 | 10 to 500 | 3 | O=c1[nH]c(Cc2ccccc2OC(F)(F)F)nc2c1cnn2-c1cccc(F)c1F [Example 30-4, 1-(2,3-Difluoro-phenyl)-6-(2-trifluoromethoxy-benzyl)-1,5-dihydro-pyrazolo[3,4-d]pyrimidin-4-one]
89 | 10 to 500 | 4 | O=c1[nH]c(Cc2ccccc2OC(F)(F)F)nc2c1cnn2-c1cccnc1 [Example 33, 6-(2-Trifluoromethoxy-benzyl)-1-(pyridin-3-yl)-1,5-dihydro-pyrazolo[3,4-d]pyrimidin-4-one]
89 | 10 to 500 | 9 | O=c1[nH]c(Cc2ccccc2OC(F)(F)F)nc2c1cnn2-c1cccc(Cl)c1Cl [Example 29, 1-(2,3-Dichloro-phenyl)-6-(2-trifluoromethoxy-benzyl)-1,5-dihydro-pyrazolo[3,4-d]pyrimidin-4-one]
91 | 10 to 500 | 11 | O=c1[nH]c(Cc2ccccc2OC(F)(F)F)nc2c1cnn2-c1cnccc1C(F)(F)F [Example 32, 6-(2-Trifluoromethoxy-benzyl)-1-(4-trifluoromethyl-pyridin-3-yl)-1,5-dihydro-pyrazolo[3,4-d]pyrimidin-4-one]
97 | 10 to 500 | 26 | CC(=O)Nc1cccc(-n2ncc3c(=O)[nH]c(Cc4ccccc4OC(F)(F)F)nc32)c1 [Example 30-5, 1-(3-Acetamido-phenyl)-6-(2-trifluoromethoxy-benzyl)-1,5-dihydro-pyrazolo[3,4-d]pyrimidin-4-one]
100 | 10 to 500 | 55 | O=C(O)c1ccc(Cl)c(-n2ncc3c(=O)[nH]c(Cc4ccccc4OC(F)(F)F)nc32)c1 [Example 30-2, 1-(2-Chloro-5-carbox-phenyl)-6-(2-trifluoromethoxy-benzyl)-1,5-dihydro-pyrazolo[3,4-d]pyrimidin-4-one]
96 | 10 to 500 | 8 | Cc1c(F)cccc1-n1ncc2c(=O)[nH]c(Cc3ccccc3OC(F)(F)F)nc21 [Example 28, 1-(3-Fluoro-2-methyl-phenyl)-6-(2-trifluoromethoxy-benzyl)-1,5-dihydro-pyrazolo[3,4-d]pyrimidin-4-one]
95 | 10 to 500 | 8 | COc1c(F)cccc1-n1ncc2c(=O)[nH]c(Cc3ccccc3OC(F)(F)F)nc21 [Example 30, 1-(2-Methoxy,3-fluoro-phenyl)-6-(2-trifluoromethoxy-benzyl)-1,5-dihydro-pyrazolo[3,4-d]pyrimidin-4-one]
